Experimental data taken from BindingDB's records for doi:10.1021/jm010576e (Chiba University, 2002).

Experiment: Binding affinity using guinea pig brain membrane preparations, towards Opioid receptor delta 1 using [3H]DPDPE as radioligand

SMILES	Ki [µM]
CC[C@@H]1CN2CCc3c([nH]c4cccc(OC)c34)[C@@H]2C[C@@H]1/C(=C\OC)C(=O)OC [CHEBI:6956]	0.06
CC[C@@H]1CN2CC[C@@]3(O)C(=Nc4cccc(OC)c43)[C@@H]2C[C@@H]1/C(=C\OC)C(=O)OC	0.155
CC[C@@H]1CN2CCc3c([nH]c4ccccc34)[C@@H]2C[C@@H]1/C(=C\OC)C(=O)OC [CHEBI:70073]	2.88
CC[C@@H]1CN2CCc3c([nH]c4cccc(O)c34)[C@@H]2C[C@@H]1/C(=C\OC)C(=O)OC	30.9
